# Values quoted from earlier work in patent publication US20090182041A1, “CONTROL OF CANCER WITH ANNONACEOUS EXTRACTS” (NATURE'S SUNSHINE PRODUCTS, INC., priority 2002, published 2009).
# Legend:
# [1] = tested on: NADH oxidase found in the plasma membranes of tumor cells; conditions: substantially purified form
# [2] = tested on: mitochondrial complex I (NADH: ubiquinone oxidoreductase); conditions: substantially purified form
Molecule,inhibition of NADH oxidase in the plasma membranes of tumor cells [1],inhibition of complex I in the electron transport system in mitochondria [2]
CCCCCCCCCC[C@@H](O)[C@H]1CC[C@@H]([C@H]2CC[C@H]([C@H](O)CCCCCCCCCC[C@@H](O)CC3=C[C@H](C)OC3=O)O2)O1 [trilobacin],inhibit,most powerful inhibitors known
asimicin,inhibit,most powerful inhibitors known
bullatacin,inhibit,most powerful inhibitors known
